# Measured values: publication PMC4305313, “A Novel Phthalimide Derivative, TC11, Has Preclinical Effects on High-Risk Myeloma Cells and Osteoclasts” (PLoS ONE, 2015)
# Target: T1, nucleophosmin 1 (NPM1) (Homo sapiens, UniProt P06748)
# T1 construct: full length of NPM1, recombinant, expressed in E. coli
# Experiment: SPR (Biacore […], NPM1 immobilized on NTA chip)
# Assay type: binding
# T1 sequence (P06748 whole entry): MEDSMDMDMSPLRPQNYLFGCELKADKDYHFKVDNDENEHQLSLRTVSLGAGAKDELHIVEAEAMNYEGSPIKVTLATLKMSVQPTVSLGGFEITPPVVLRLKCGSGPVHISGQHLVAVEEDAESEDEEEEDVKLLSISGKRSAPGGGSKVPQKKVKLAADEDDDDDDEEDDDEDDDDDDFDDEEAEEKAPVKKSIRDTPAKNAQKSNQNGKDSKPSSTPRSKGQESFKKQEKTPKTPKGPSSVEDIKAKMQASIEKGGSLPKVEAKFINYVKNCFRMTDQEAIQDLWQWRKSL
row,Kd,SMILES
1,62.3 nM,"CC(C)c1cccc(C(C)C)c1N1C(=O)c2ccc(N)cc2C1=O [TC11, 2-(2,6-diisopropylphenyl)-5-amino-1H-isoindole-1,3-dione]"
2,766 nM,Nc1cccc2c1CN(C1CCC(=O)NC1=O)C2=O (centres unmarked) [lenalidomide]
